# Where a name gives a salt, the structure may show the parent alone.
# System: patients with seasonal allergic rhinitis (SAR)
# Test: MP 428 two-week randomized double-blind study: Total Nasal Symptom Score (TNSS), change from baseline
# Assay type: in vivo, human
# Set-up: key to Change from Baseline in AM TNSS, Mean / Change from Baseline in AM TNSS, LS Mean / Change from Baseline in AM TNSS, Median: TNSS sum of 4 symptoms each 0-3 (0=none, 3=severe); change from baseline
# Conditions: for AUC of Change from Baseline in TNSS (AM and PM Combined), Mean / AUC of Change from Baseline in TNSS (AM and PM Combined), Median / AUC of Change from Baseline in TNSS (AM and PM Combined), LS Mean: Day 1 to Day 14; for AUC of Change from Baseline in TNSS (AM and PM Combined), LS Mean: ANCOVA
# Description: A two-week, randomized, double-blind study, which evaluated the effects of the co-administration of ASTELIN® (azelastine hydrochloride (HCl)) and FLONASE® (fluticasone propionate) compared to either product alone in patients with seasonal allergic rhinitis (SAR) was conducted during the 2006 Texas mountain cedar season. After a 5-day placebo lead-in period, 151 patients with moderate-to-severe allergic rhinitis symptoms were randomized to either: (1) (49 total patients) ASTELIN® (azelastine hydrochloride (HCl)) plus placebo saline nasal spray 2 sprays per nostril, 15 minutes apart, twice daily (AM & PM); (2) (50 total patients) FLONASE® (fluticasone propionate) plus placebo saline nasal spray, 2 sprays per nostril, 15 minutes apart, once daily (AM) and two sessions of placebo saline nasal spray, 2 sprays per nostril, 15 minutes apart (PM); or (3) (52 total patients) the co-administration of ASTELIN® (azelastine hydrochloride (HCl)) 2 sprays per nostril plus FLONASE® (fluticasone propionate) 2 sprays per nostril (AM), 15 minutes apart, and ASTELIN® (azelastine hydrochloride (HCl)) 2 sprays per nostril plus placebo saline nasal spray, 15 minutes apart, (PM) for a 2-week double-blind treatment period.
# The primary efficacy variable was the change from baseline in the Total Nasal Symptom Score (TNSS), which comprised sneezing, itchy nose, runny nose, and nasal congestion (individual symptoms scores were assigned a value between 0 and 3, where 0=no symptoms and 3=severe symptoms). This study was not statistically designed to assess the differences between ASTELIN® and FLONASE®.
# [1] = Day 12, Per-Protocol Population
# [2] = Day 13, Intent-to-Treat Population
# [3] = Day 13, Per-Protocol Population
# [4] = Day 14, Intent-to-Treat Population
# [5] = Day 14, Per-Protocol Population
# [6] = Overall (Day 2 to Day 14), Intent-to-Treat Population
# [7] = Overall (Day 2 to Day 14), Per-Protocol Population
smiles,measurement,setting,value
"CN1CCCC(n2nc(Cc3ccc(Cl)cc3)c3ccccc3c2=O)CC1 (racemic) [Azelastine, (±)-1-(2H)-phthalazinone, 4-[(4-chlorophenyl)methyl]-2-(hexahydro-1-methyl-1H-azepin-4-yl)-, mono-hydrochloride]","Percent Change from Baseline in PM TNSS, Median","Day 12, Intent-to-Treat Population",−25.00%
same,"Change from Baseline in AM and PM Combined TNSS, LS Mean","Day 12, Intent-to-Treat Population, ANCOVA model",−5.46
same,"Change from Baseline in AM and PM Combined TNSS, LS Mean",[1],−5.40
same,"Change from Baseline in AM and PM Combined TNSS, Mean",[1],−5.54
same,"Change from Baseline in AM and PM Combined TNSS, Median",[1],−5.00
same,"Percent Change from Baseline in AM and PM Combined TNSS, LS Mean",[1],−27.82%
same,"Percent Change from Baseline in AM and PM Combined TNSS, Mean",[1],−28.25%
same,"Percent Change from Baseline in AM and PM Combined TNSS, Median",[1],−25.86%
same,"Change from Baseline in AM TNSS, LS Mean",[2],−2.55
same,"Change from Baseline in AM TNSS, Mean",[2],−2.50
same,"Change from Baseline in AM TNSS, Median",[2],−1.80
same,"Change from Baseline in AM and PM Combined TNSS, Mean",[2],−5.70
same,"Change from Baseline in AM and PM Combined TNSS, Median",[2],−5.30
same,"Change from Baseline in PM TNSS, LS Mean",[2],−3.11
same,"Change from Baseline in PM TNSS, Mean",[2],−3.21
same,"Change from Baseline in PM TNSS, Median",[2],−3.00
same,"Percent Change from Baseline in AM TNSS, LS Mean",[2],−26.36%
same,"Percent Change from Baseline in AM TNSS, Mean",[2],−26.20%
same,"Percent Change from Baseline in AM TNSS, Median",[2],−18.37%
same,"Percent Change from Baseline in AM and PM Combined TNSS, LS Mean",[2],−29.24%
same,"Percent Change from Baseline in AM and PM Combined TNSS, Mean",[2],−29.35%
same,"Percent Change from Baseline in AM and PM Combined TNSS, Median",[2],−26.15%
same,"Percent Change from Baseline in PM TNSS, LS Mean",[2],−32.19%
same,"Percent Change from Baseline in PM TNSS, Mean",[2],−32.27%
same,"Percent Change from Baseline in PM TNSS, Median",[2],−33.33%
same,"Change from Baseline in AM and PM Combined TNSS, LS Mean","Day 13, Intent-to-Treat Population, ANCOVA model",−5.65
same,"Change from Baseline in AM and PM Combined TNSS, LS Mean",[3],−5.59
same,"Change from Baseline in AM and PM Combined TNSS, Mean",[3],−5.70
same,"Change from Baseline in AM and PM Combined TNSS, Median",[3],−5.30
same,"Percent Change from Baseline in AM and PM Combined TNSS, LS Mean",[3],−29.06%
same,"Percent Change from Baseline in AM and PM Combined TNSS, Mean",[3],−29.35%
same,"Percent Change from Baseline in AM and PM Combined TNSS, Median",[3],−26.15%
same,"Change from Baseline in AM TNSS, LS Mean",[4],−2.56
same,"Change from Baseline in AM TNSS, Mean",[4],−2.52
same,"Change from Baseline in AM TNSS, Median",[4],−2.00
same,"Change from Baseline in AM and PM Combined TNSS, Mean",[4],−5.62
same,"Change from Baseline in AM and PM Combined TNSS, Median",[4],−5.30
same,"Change from Baseline in PM TNSS, LS Mean",[4],−3.00
same,"Change from Baseline in PM TNSS, Mean",[4],−3.10
same,"Change from Baseline in PM TNSS, Median",[4],−2.80
same,"Percent Change from Baseline in AM TNSS, LS Mean",[4],−26.51%
same,"Percent Change from Baseline in AM TNSS, Mean",[4],−26.44%
same,"Percent Change from Baseline in AM TNSS, Median",[4],−20.00%
same,"Percent Change from Baseline in AM and PM Combined TNSS, LS Mean",[4],−28.70%
same,"Percent Change from Baseline in AM and PM Combined TNSS, Mean",[4],−28.86%
same,"Percent Change from Baseline in AM and PM Combined TNSS, Median",[4],−25.00%
same,"Percent Change from Baseline in PM TNSS, LS Mean",[4],−31.07%
same,"Percent Change from Baseline in PM TNSS, Mean",[4],−31.14%
same,"Percent Change from Baseline in PM TNSS, Median",[4],−28.57%
same,"Change from Baseline in AM and PM Combined TNSS, LS Mean","Day 14, Intent-to-Treat Population, ANCOVA model",−5.56
same,"Change from Baseline in AM and PM Combined TNSS, LS Mean",[5],−5.50
same,"Change from Baseline in AM and PM Combined TNSS, Mean",[5],−5.62
same,"Change from Baseline in AM and PM Combined TNSS, Median",[5],−5.30
same,"Percent Change from Baseline in AM and PM Combined TNSS, LS Mean",[5],−28.52%
same,"Percent Change from Baseline in AM and PM Combined TNSS, Mean",[5],−28.86%
same,"Percent Change from Baseline in AM and PM Combined TNSS, Median",[5],−25.00%
same,"AUC of Change from Baseline in TNSS (AM and PM Combined), Mean",Intent-to-Treat Population,−60.38
same,"AUC of Change from Baseline in TNSS (AM and PM Combined), Median",Intent-to-Treat Population,−56.00
same,"AUC of Change from Baseline in TNSS (AM and PM Combined), LS Mean",Intent-to-Treat Population,−59.72
same,"Change from Baseline in AM TNSS, LS Mean",[6],−2.22
same,"Change from Baseline in AM TNSS, Mean",[6],−2.21
same,"Change from Baseline in AM TNSS, Median",[6],−1.86
same,"Change from Baseline in AM and PM Combined TNSS, Mean",[6],−4.73
same,"Change from Baseline in AM and PM Combined TNSS, Median",[6],−4.24
same,"Change from Baseline in PM TNSS, LS Mean",[6],−2.57
same,"Change from Baseline in PM TNSS, Mean",[6],−2.51
same,"Change from Baseline in PM TNSS, Median",[6],−2.38
same,"Percent Change from Baseline in AM TNSS, LS Mean",[6],−23.13%
same,"Percent Change from Baseline in AM TNSS, Mean",[6],−23.29%
same,"Percent Change from Baseline in AM TNSS, Median",[6],−19.23%
same,"Percent Change from Baseline in AM and PM Combined TNSS, LS Mean",[6],−24.78%
same,"Percent Change from Baseline in AM and PM Combined TNSS, Mean",[6],−24.47%
same,"Percent Change from Baseline in AM and PM Combined TNSS, Median",[6],−24.26%
same,"Percent Change from Baseline in PM TNSS, LS Mean",[6],−26.45%
same,"Percent Change from Baseline in PM TNSS, Mean",[6],−25.39%
same,"Percent Change from Baseline in PM TNSS, Median",[6],−21.68%
same,"Change from Baseline in AM and PM Combined TNSS, LS Mean","Overall (Day 2 to Day 14), Intent-to-Treat Population, ANCOVA model",−4.76
same,"Change from Baseline in AM and PM Combined TNSS, LS Mean",[7],−4.73
same,"Change from Baseline in AM and PM Combined TNSS, Mean",[7],−4.73
same,"Change from Baseline in AM and PM Combined TNSS, Median",[7],−4.24
same,"Percent Change from Baseline in AM and PM Combined TNSS, LS Mean",[7],−24.72%
same,"Percent Change from Baseline in AM and PM Combined TNSS, Mean",[7],−24.47%
same,"Percent Change from Baseline in AM and PM Combined TNSS, Median",[7],−24.26%
same,"AUC of Change from Baseline in TNSS (AM and PM Combined), Mean",Per-Protocol Population,−60.38
same,"AUC of Change from Baseline in TNSS (AM and PM Combined), Median",Per-Protocol Population,−56.00
same,"AUC of Change from Baseline in TNSS (AM and PM Combined), LS Mean",Per-Protocol Population,−59.23
